Measurements as given in US9567345B2, “Pharmaceutically active pyrazolo-triazine derivatives” (LEAD DISCOVERY CENTER GMBH, priority 2012, dated 2017).
Each block holds one compound with its values, some of them ahead of it.

Columns and labels:
Type in all cases: biochemical
[1] = target: T1, CDK2/CycA (Homo sapiens, UniProt P24941); assay: CDK2 Enzymatic Activity Assay (Lance Kinase Activity Assay, FRET); settings: Table 5B, class symbols per IC50 [nM] ranges of b581; read-out: CDK2: Selectivity of CDK7 inhibition over CDK2 inhibition
T1 construct: purchased Proqinase
Summary of the method: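 Compounds in an 8-step, 1:3 dilution series were incubated 1 h at room temperature with CDK2/CycA, ULight-MBP substrate and ATP in pH 7.5 HEPES buffer.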

[2] = target: CDK7/CycH/Mat1 (Homo sapiens, UniProt P50613); assay: CDK7 Enzymatic Activity Assay (Lance Kinase Activity Assay, FRET); settings: CDK7/CycH/Mat1, 25 μM ATP final; class ranges; read-out: CDK7: IC50 [nM] for CDK7 inhibition
Summary of the method: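 TR-FRET (LANCE) kinase assay: CDK7/CycH/Mat1 phosphorylates Ulight-MBP substrate for 1 h at room temperature in pH 7.5 HEPES buffer; detection 1 h with Eu-labelled anti-phospho antibody plus EDTA.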

[3] = target: CDK9/Cyclin T1 (Homo sapiens, UniProt P50750); assay: CDK9 Enzymatic Activity Assay (Lance Kinase Activity Assay, FRET); settings: Table 5B, class symbols per IC50 [nM] ranges of b581; read-out: CDK9: Selectivity of CDK7 inhibition over CDK9 inhibition
Summary of the method: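 CDK9/cyclin T1 phosphorylation of a ULight-MBP peptide was run for 1 h at room temperature in pH 7.5 HEPES buffer with MgCl2, EGTA, DTT and Tween-20. It was followed by 1 h with Eu-anti-phospho-MBP antibody (4 nM) in EDTA detection buffer. TR-FRET loss gave IC50 from 8-point, 1:3 sigmoidal dose-response curves.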

Sequence of CDK9/Cyclin T1 (P50750 whole entry): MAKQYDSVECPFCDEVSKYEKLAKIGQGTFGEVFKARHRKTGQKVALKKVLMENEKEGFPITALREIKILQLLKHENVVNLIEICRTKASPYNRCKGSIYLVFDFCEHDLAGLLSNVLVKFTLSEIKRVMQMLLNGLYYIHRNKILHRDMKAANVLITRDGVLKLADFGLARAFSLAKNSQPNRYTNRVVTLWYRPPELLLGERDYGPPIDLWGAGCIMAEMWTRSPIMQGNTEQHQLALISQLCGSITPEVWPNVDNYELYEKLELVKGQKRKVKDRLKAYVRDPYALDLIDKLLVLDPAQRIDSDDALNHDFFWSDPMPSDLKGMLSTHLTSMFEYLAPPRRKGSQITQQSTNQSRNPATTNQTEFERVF
Sequence of CDK9/Cyclin T1 (O60563 whole entry partner): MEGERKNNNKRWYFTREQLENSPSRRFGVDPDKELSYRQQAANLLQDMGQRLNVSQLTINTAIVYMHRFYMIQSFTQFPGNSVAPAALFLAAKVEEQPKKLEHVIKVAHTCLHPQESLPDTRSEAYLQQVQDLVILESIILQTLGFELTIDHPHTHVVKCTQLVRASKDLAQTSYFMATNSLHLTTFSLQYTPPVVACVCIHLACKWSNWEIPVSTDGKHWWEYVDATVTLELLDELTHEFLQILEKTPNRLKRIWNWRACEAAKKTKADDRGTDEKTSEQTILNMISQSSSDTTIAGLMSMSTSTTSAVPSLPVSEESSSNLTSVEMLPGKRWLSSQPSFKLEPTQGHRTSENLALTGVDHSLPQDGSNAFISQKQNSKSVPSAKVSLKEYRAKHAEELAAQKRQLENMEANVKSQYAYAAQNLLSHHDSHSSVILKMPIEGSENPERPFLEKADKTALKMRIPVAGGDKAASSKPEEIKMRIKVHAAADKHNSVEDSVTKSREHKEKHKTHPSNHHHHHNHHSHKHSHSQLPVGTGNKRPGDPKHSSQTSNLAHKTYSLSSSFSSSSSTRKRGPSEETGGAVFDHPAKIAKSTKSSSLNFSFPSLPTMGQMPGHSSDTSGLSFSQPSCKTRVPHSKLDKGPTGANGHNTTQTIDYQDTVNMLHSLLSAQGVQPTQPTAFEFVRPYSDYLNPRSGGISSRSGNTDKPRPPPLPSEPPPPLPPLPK
Sequence of CDK7/CycH/Mat1 (P50613 whole entry): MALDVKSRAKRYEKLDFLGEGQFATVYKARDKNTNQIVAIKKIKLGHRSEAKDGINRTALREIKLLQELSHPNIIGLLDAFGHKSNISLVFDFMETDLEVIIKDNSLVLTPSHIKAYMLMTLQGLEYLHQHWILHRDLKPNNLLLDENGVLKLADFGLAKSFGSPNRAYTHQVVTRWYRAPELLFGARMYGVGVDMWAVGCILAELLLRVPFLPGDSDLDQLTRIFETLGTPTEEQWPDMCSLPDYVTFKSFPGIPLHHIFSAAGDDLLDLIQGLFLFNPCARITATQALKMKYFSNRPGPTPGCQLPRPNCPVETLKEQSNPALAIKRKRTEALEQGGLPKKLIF

SMILES: C#CC(C)NC(=O)c1ccccc1CNc1nc(O[C@@H]2CCCNC2)nc2c(C(C)C)cnn12 (stereo partly drawn) [(VII-109), N-(but-3-yn-2-yl)-2-(((8-isopropyl-2-((R)-piperidin-3-yloxy)pyrazolo[1,5-a][1,3,5]triazin-4-yl)amino)methyl)benzamide]
IC50 [1]: > 2500 nM
IC50 [2]: 10 to 25 nM
IC50 [3]: > 2500 nM

SMILES: CCCNC(=O)Nc1ccccc1CNc1nc(O[C@@H]2CCCNC2)nc2c(C(C)C)cnn12 [(VII-110), (R)-1-(2-(((8-isopropyl-2-(piperidin-3-yloxy)pyrazolo[1,5-a][1,3,5]triazin-4-yl)amino)methyl)phenyl)-3-propylurea]
IC50 [1]: > 2500 nM
IC50 [2]: < 5 nM
IC50 [3]: > 2500 nM

SMILES: CC(C)c1cnn2c(NCc3ccccc3NC(=O)NC3CCCCC3)nc(O[C@@H]3CCCNC3)nc12 [(VII-112), (R)-1-cyclohexyl-3-(2-(((8-isopropyl-2-(piperidin-3-yloxy)pyrazolo[1,5-a][1,3,5]triazin-4-yl)amino)methyl)phenyl)urea]
IC50 [1]: > 2500 nM
IC50 [2]: 5 to 10 nM
IC50 [3]: > 2500 nM

SMILES: CC(C)c1cnn2c(NCc3ccccc3NC(=O)NCc3ccccc3)nc(O[C@@H]3CCCNC3)nc12 [(VII-113), (R)-1-benzyl-3-(2-(((8-isopropyl-2-(piperidin-3-yloxy)pyrazolo[1,5-a][1,3,5]triazin-4-yl)amino)methyl)phenyl)urea]
IC50 [1]: > 2500 nM
IC50 [2]: 10 to 25 nM
IC50 [3]: > 2500 nM

SMILES: CCNC(=O)Nc1ccccc1CNc1nc(O[C@@H]2CCCNC2)nc2c(C(C)C)cnn12 [(VII-114), (R)-1-ethyl-3-(2-(((8-isopropyl-2-(piperidin-3-yloxy)pyrazolo[1,5-a][1,3,5]triazin-4-yl)amino)methyl)phenyl)urea]
IC50 [1]: > 2500 nM
IC50 [2]: < 5 nM
IC50 [3]: > 2500 nM

SMILES: Cc1ccc(CNc2nc(O[C@@H]3CCCNC3)nc3c(C(C)C)cnn23)c(OCC(C)C)c1 [(VII-115), (R)-N-(2-isobutoxy-4-methylbenzyl)-8-isopropyl-2-(piperidin-3-yloxy)pyrazolo[1,5-a][1,3,5]triazin-4-amine]
IC50 [1]: > 2500 nM
IC50 [2]: > 25 nM
IC50 [3]: > 2500 nM

SMILES: CC(C)c1cnn2c(NCc3ccccc3C3=CCCCC3)nc(O[C@@H]3CCCNC3)nc12 [(VII-117), (R)-8-isopropyl-2-(piperidin-3-yloxy)-N-((2′,3′,4′,5′-tetrahydro-[1,1′-biphenyl]-2-yl)methyl)pyrazolo[1,5-a][1,3,5]triazin-4-amine]
IC50 [1]: > 2500 nM
IC50 [2]: > 25 nM
IC50 [3]: > 2500 nM

SMILES: CC(C)c1cnn2c(NCc3ccccc3-n3cccn3)nc(OC3COC4(CCNCC4)C3)nc12 (stereo not drawn) [(VII-121), 2-(1-oxa-8-azaspiro[4.5]decan-3-yloxy)-N-(2-(1H-pyrazol-1-yl)benzyl)-8-isopropylpyrazolo[1,5-a][1,3,5]triazin-4-amine]
IC50 [1]: > 2500 nM
IC50 [2]: < 5 nM
IC50 [3]: > 2500 nM

SMILES: CC(C)c1cnn2c(NCc3ccccc3-n3cccn3)nc(OCCN3CCNCC3)nc12 [(VII-124), N-(2-(1H-pyrazol-1-yl)benzyl)-8-isopropyl-2-(2-(piperazin-1-yl)ethoxy)pyrazolo[1,5-a][1,3,5]triazin-4-amine]
IC50 [1]: > 2500 nM
IC50 [2]: > 25 nM
IC50 [3]: > 2500 nM

SMILES: CC(C)c1cnn2c(NCc3ccccc3C3CCCC3)nc(O[C@@H]3CCCNC3)nc12 [(VII-142), (R)-N-(2-cyclopentylbenzyl)-8-isopropyl-2-(piperidin-3-yloxy)pyrazolo[1,5-a][1,3,5]triazin-4-amine]
IC50 [1]: > 2500 nM
IC50 [2]: > 25 nM
IC50 [3]: > 2500 nM

SMILES: CCNC(=O)Oc1ccccc1CNc1nc(O[C@@H]2CCCNC2)nc2c(C(C)C)cnn12 [(VII-146), (R)-2-(((8-isopropyl-2-(piperidin-3-yloxy)pyrazolo[1,5-a][1,3,5]triazin-4-yl)amino)methyl)phenyl ethylcarbamate]
IC50 [1]: > 2500 nM
IC50 [2]: 10 to 25 nM
IC50 [3]: > 2500 nM

SMILES: CC(C)COC(=O)Oc1ccccc1CNc1nc(O[C@@H]2CCCNC2)nc2c(C(C)C)cnn12 [(VII-149), (R)-isobutyl (2-(((8-isopropyl-2-(piperidin-3-yloxy)pyrazolo[1,5-a][1,3,5]triazin-4-yl)amino)methyl)phenyl) carbonate]
IC50 [1]: > 2500 nM
IC50 [2]: 10 to 25 nM
IC50 [3]: > 2500 nM

Next, values leading:

IC50 [1]: 50 to 500 nM
IC50 [2]: < 5 nM
IC50 [3]: > 2500 nM
SMILES: CNS(=O)(=O)c1ccccc1CNc1nc(O[C@@H]2CCCNC2)nc2c(C(C)C)cnn12 [(VII-104), (R)-2-(((8-isopropyl-2-(piperidin-3-yloxy)pyrazolo[1,5-a][1,3,5]triazin-4-yl)amino)methyl)-N-methylbenzenesulfonamide]

IC50 [1]: 50 to 500 nM
IC50 [2]: < 5 nM
IC50 [3]: > 2500 nM
SMILES: CC(C)c1cnn2c(NCc3ccccc3S(=O)(=O)N3CCCC3)nc(O[C@@H]3CCCNC3)nc12 [(VII-106), (R)-8-isopropyl-2-(piperidin-3-yloxy)-N-(2-(pyrrolidin-1-ylsulfonyl)benzyl)pyrazolo[1,5-a][1,3,5]triazin-4-amine]

IC50 [1]: 50 to 500 nM
IC50 [2]: < 5 nM
IC50 [3]: > 2500 nM
SMILES: CC(C)c1cnn2c(NCc3ccccc3S(=O)(=O)N3CCN(C)CC3)nc(O[C@@H]3CCCNC3)nc12 [(VII-107), (R)-8-isopropyl-N-(2-((4-methylpiperazin-1-yl)sulfonyl)benzyl)-2-(piperidin-3-yloxy)pyrazolo[1,5-a][1,3,5]triazin-4-amine]

IC50 [1]: 50 to 500 nM
IC50 [2]: < 5 nM
IC50 [3]: > 2500 nM
SMILES: CNC(=O)c1ccccc1CNc1nc(O[C@@H]2CCCNC2)nc2c(C(C)C)cnn12 [(VII-108), (R)-2-(((8-isopropyl-2-(piperidin-3-yloxy)pyrazolo[1,5-a][1,3,5]triazin-4-yl)amino)methyl)-N-methylbenzamide]

IC50 [1]: 50 to 500 nM
IC50 [2]: 10 to 25 nM
IC50 [3]: 500 to 2500 nM
SMILES: CC(C)c1cnn2c(NCc3cccc4c3OCCCO4)nc(O[C@@H]3CCCNC3)nc12 [(VII-116), (R)-N-((3,4-dihydro-2H-benzo[b][1,4]dioxepin-6-yl)methyl)-8-isopropyl-2-(piperidin-3-yloxy)pyrazolo[1,5-a][1,3,5]triazin-4-amine]

IC50 [1]: 50 to 500 nM
IC50 [2]: 5 to 10 nM
IC50 [3]: 50 to 500 nM
SMILES: CSc1ccccc1CNc1nc(O[C@@H]2CCCNC2)nc2c(C(C)C)cnn12 [(VII-118), (R)-8-isopropyl-N-(2-(methylthio)benzyl)-2-(piperidin-3-yloxy)pyrazolo[1,5-a][1,3,5]triazin-4-amine]

IC50 [1]: 500 to 2500 nM
IC50 [2]: > 25 nM
IC50 [3]: > 2500 nM
SMILES: CC(C)c1cnn2c(NCc3ccccc3SC3CCCC3)nc(O[C@@H]3CCCNC3)nc12 [(VII-119), (R)-N-(2-(cyclopentylthio)benzyl)-8-isopropyl-2-(piperidin-3-yloxy)pyrazolo[1,5-a][1,3,5]triazin-4-amine]

IC50 [1]: 50 to 500 nM
IC50 [2]: 5 to 10 nM
IC50 [3]: > 2500 nM
SMILES: CC(C)c1cnn2c(NCc3ccccc3-n3cccn3)nc(OC3C=CCNC3)nc12 (stereo not drawn) [(VII-120), N-(2-(1H-pyrazol-1-yl)benzyl)-8-isopropyl-2-((1,2,3,6-tetrahydropyridin-3-yl)oxy)pyrazolo[1,5-a][1,3,5]triazin-4-amine]

IC50 [1]: 500 to 2500 nM
IC50 [2]: 10 to 25 nM
IC50 [3]: > 2500 nM
SMILES: CC(C)c1cnn2c(NCc3ccccc3-n3cccn3)nc(OC3CNCCOC3)nc12 (stereo not drawn) [(VII-122), 2-((1,4-oxazepan-6-yl)oxy)-N-(2-(1H-pyrazol-1-yl)benzyl)-8-isopropylpyrazolo[1,5-a][1,3,5]triazin-4-amine]

IC50 [1]: 50 to 500 nM
IC50 [2]: < 5 nM
IC50 [3]: > 2500 nM
SMILES: CC(C)c1cnn2c(NCc3ccccc3-n3cccn3)nc(OC3C[C@H]4CNC[C@@H]34)nc12 (stereo partly drawn) [(VII-123), N-(2-(1H-pyrazol-1-yl)benzyl)-2-((1R,5S)-3-azabicyclo[3.2.0]heptan-6-yloxy)-8-isopropylpyrazolo[1,5-a][1,3,5]triazin-4-amine]

IC50 [1]: 500 to 2500 nM
IC50 [2]: 10 to 25 nM
IC50 [3]: 500 to 2500 nM
SMILES: CC(=O)Oc1ccccc1CNc1nc(O[C@@H]2CCCNC2)nc2c(C(C)C)cnn12 [(VII-145), (R)-2-(((8-isopropyl-2-(piperidin-3-yloxy)pyrazolo[1,5-a][1,3,5]triazin-4-yl)amino)methyl)phenyl acetate]

IC50 [1]: 50 to 500 nM
IC50 [2]: 5 to 10 nM
IC50 [3]: > 2500 nM
SMILES: CC(C)c1cnn2c(NCc3ccccc3OS(C)(=O)=O)nc(O[C@@H]3CCCNC3)nc12 [(VII-147), (R)-2-(((8-isopropyl-2-(piperidin-3-yloxy)pyrazolo[1,5-a][1,3,5]triazin-4-yl)amino)methyl)phenyl methanesulfonate]

IC50 [1]: 50 to 500 nM
IC50 [2]: < 5 nM
IC50 [3]: 50 to 500 nM
SMILES: CC(C)c1cnn2c(NCc3ccccc3OS(=O)C(C)(C)C)nc(O[C@@H]3CCCNC3)nc12 (stereo partly drawn) [(VII-148), 2-(((8-isopropyl-2-((R)-piperidin-3-yloxy)pyrazolo[1,5-a][1,3,5]triazin-4-yl)amino)methyl)phenyl 2-methylpropane-2-sulfinate]
